Source: patent US20260262643A1, “HERBICIDAL BENZOXAZINES” (FMC CORPORATION, priority 2022, published 2026)

Legend:
soybean [1] = experiment: Test A postemergence; format: in vivo, Glycine max; details: postemergence, 10 days; for Soybean plant response rating: 125 g ai/ha, 0 to 100 scale, 0 no effect, 100 complete control; for Plant response rating, Soybean: 500 g ai/ha, visual injury, 0 to 100 scale (0 no effect, 100 complete control)
Procedure, shortened: (§1)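 Seeds in loam–sand blend received a directed preemergence soil spray of compound in non-phytotoxic solvent with surfactant; postemergence plants (2–10 cm, one- to two-leaf stage) were sprayed with the same formulation. After 10 days in greenhouse, injury was rated visually versus untreated controls, 0 (no effect) to 100 (complete control).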

goosegrass [2] = experiment: Test A preemergence; format: in vivo, Eleusine indica
Procedure, shortened: as §1

ragweed [3] = experiment: Test A preemergence; format: in vivo, Ambrosia artemisiifolia
Procedure, shortened: as §1

blackgrass [4] = experiment: Test A postemergence; format: in vivo, Alopecurus myosuroides; details: postemergence, 10 days; for Blackgrass plant response rating: 125 g ai/ha, 0 to 100 scale, 0 no effect, 100 complete control; for Plant response rating, Blackgrass: 500 g ai/ha, visual injury, 0 to 100 scale (0 no effect, 100 complete control)
Procedure, shortened: as §1

soybean [5] = experiment: Test A preemergence; format: in vivo, Glycine max
Procedure, shortened: as §1

goosegrass [6] = experiment: Test A postemergence; format: in vivo, Eleusine indica; details: postemergence, 10 days; for Goosegrass plant response rating: 125 g ai/ha, 0 to 100 scale, 0 no effect, 100 complete control; for Plant response rating, Goosegrass: 500 g ai/ha, visual injury, 0 to 100 scale (0 no effect, 100 complete control)
Procedure, shortened: as §1

oat, wild [7] = experiment: Test A postemergence; format: in vivo, Avena fatua; details: postemergence, 10 days; for Oat, Wild plant response rating: 125 g ai/ha, 0 to 100 scale, 0 no effect, 100 complete control; for Plant response rating, Oat, Wild: 500 g ai/ha, visual injury, 0 to 100 scale (0 no effect, 100 complete control)
Procedure, shortened: as §1

ragweed [8] = experiment: Test A postemergence; format: in vivo, Ambrosia artemisiifolia; details: postemergence, 10 days; for Ragweed plant response rating: 125 g ai/ha, 0 to 100 scale, 0 no effect, 100 complete control; for Plant response rating, Ragweed: 500 g ai/ha, visual injury, 0 to 100 scale (0 no effect, 100 complete control)
Procedure, shortened: as §1

pigweed, palmer [9] = experiment: Test A postemergence; format: in vivo, Amaranthus palmeri; details: postemergence, 10 days; for Pigweed, Palmer plant response rating: 125 g ai/ha, 0 to 100 scale, 0 no effect, 100 complete control; for Plant response rating, Pigweed, Palmer: 500 g ai/ha, visual injury, 0 to 100 scale (0 no effect, 100 complete control)
Procedure, shortened: as §1

barnyardgrass = experiment: Test B flooded paddy test; format: in vivo, Echinochloa crus-galli; details: 250 g ai/ha, Flood, 13 days, 0 to 100 scale (0 no effect, 100 complete control)
Procedure, shortened: (§2)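 Visual scores from 0 (no effect) to 100 (complete kill) were assigned 13 days after treatment by comparison with controls. Seedlings had been treated at two leaves by adding compound to floodwater standing 3 cm deep, kept at that level in the greenhouse.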

corn [10] = experiment: Test A preemergence; format: in vivo, Zea mays
Procedure, shortened: as §1

rice = experiment: Test B flooded paddy test; format: in vivo, Oryza sativa; details: 250 g ai/ha, Flood, 13 days, 0 to 100 scale (0 no effect, 100 complete control)
Procedure, shortened: as §2

galium = experiment: Test A postemergence; format: in vivo, Galium aparine; details: postemergence, 10 days; for Galium plant response rating: 125 g ai/ha, 0 to 100 scale, 0 no effect, 100 complete control; for Plant response rating, Galium: 500 g ai/ha, visual injury, 0 to 100 scale (0 no effect, 100 complete control)
Procedure, shortened: as §1

kochia [11] = experiment: Test A preemergence; format: in vivo, Bassia scoparia
Procedure, shortened: as §1

oat, wild [12] = experiment: Test A preemergence; format: in vivo, Avena fatua
Procedure, shortened: as §1

sedge, umbrella = experiment: Test B flooded paddy test; format: in vivo, Cyperus difformis; details: 250 g ai/ha, Flood, 13 days, 0 to 100 scale (0 no effect, 100 complete control)
Procedure, shortened: as §2

blackgrass [13] = experiment: Test A preemergence; format: in vivo, Alopecurus myosuroides
Procedure, shortened: as §1

pigweed, palmer [14] = experiment: Test A preemergence; format: in vivo, Amaranthus palmeri
Procedure, shortened: as §1

corn [15] = experiment: Test A postemergence; format: in vivo, Zea mays; details: postemergence, 10 days; for Corn plant response rating: 125 g ai/ha, 0 to 100 scale, 0 no effect, 100 complete control; for Plant response rating, Corn: 500 g ai/ha, visual injury, 0 to 100 scale (0 no effect, 100 complete control)
Procedure, shortened: as §1

wheat [16] = experiment: Test A preemergence; format: in vivo, Triticum aestivum
Procedure, shortened: as §1

ducksalad = experiment: Test B flooded paddy test; format: in vivo, Heteranthera limosa; details: 250 g ai/ha, Flood, 13 days, 0 to 100 scale (0 no effect, 100 complete control)
Procedure, shortened: as §2

horseweed = experiment: Test A postemergence; format: in vivo, Erigeron canadensis; details: postemergence, 10 days; for Horseweed plant response rating: 125 g ai/ha, 0 to 100 scale, 0 no effect, 100 complete control; for Plant response rating, Horseweed: 500 g ai/ha, visual injury, 0 to 100 scale (0 no effect, 100 complete control)
Procedure, shortened: as §1

kochia [17] = experiment: Test A postemergence; format: in vivo, Bassia scoparia; details: postemergence, 10 days; for Kochia plant response rating: 125 g ai/ha, 0 to 100 scale, 0 no effect, 100 complete control; for Plant response rating, Kochia: 500 g ai/ha, visual injury, 0 to 100 scale (0 no effect, 100 complete control)
Procedure, shortened: as §1

ryegrass, Italian [18] = experiment: Test A preemergence; format: in vivo, Lolium multiflorum
Procedure, shortened: as §1

wheat [19] = experiment: Test A postemergence; format: in vivo, Triticum aestivum; details: postemergence, 10 days; for Wheat plant response rating: 125 g ai/ha, 0 to 100 scale, 0 no effect, 100 complete control; for Plant response rating, Wheat: 500 g ai/ha, visual injury, 0 to 100 scale (0 no effect, 100 complete control)
Procedure, shortened: as §1

foxtail, giant [20] = experiment: Test A preemergence; format: in vivo, Setaria faberi
Procedure, shortened: as §1

foxtail, giant [21] = experiment: Test A postemergence; format: in vivo, Setaria faberi; details: postemergence, 10 days; for Foxtail, Giant plant response rating: 125 g ai/ha, 0 to 100 scale, 0 no effect, 100 complete control; for Plant response rating, Foxtail, Giant: 500 g ai/ha, visual injury, 0 to 100 scale (0 no effect, 100 complete control)
Procedure, shortened: as §1

ryegrass, Italian [22] = experiment: Test A postemergence; format: in vivo, Lolium multiflorum; details: postemergence, 10 days; for Ryegrass, Italian plant response rating: 125 g ai/ha, 0 to 100 scale, 0 no effect, 100 complete control; for Plant response rating, Ryegrass, Italian: 500 g ai/ha, visual injury, 0 to 100 scale (0 no effect, 100 complete control)
Procedure, shortened: as §1

[23] = 125 g ai/ha, visual injury after 10 days, 0 to 100 scale, 0 is no effect, 100 is complete control
[24] = 500 g ai/ha, 0 to 100 scale (0 no effect, 100 complete control), 10 days

Cc1ccc(-n2cnc(C3CCC3)n2)cc1C(=O)N1C[C@H](C)Oc2c(C)cccc21 [Compound 97]
0: Plant response rating, Barnyardgrass (barnyardgrass) | Plant response rating, Rice (rice) | Plant response rating, Sedge, Umbrella (sedge, umbrella) | Plant response rating, Ducksalad (ducksalad)
60: Plant response rating, Kochia (kochia [11]; [23])
20: Plant response rating, Corn (corn [10]; [24]) | Wheat plant response rating (wheat [19])
90: Plant response rating, Goosegrass (goosegrass [6]) | Pigweed, Palmer plant response rating (pigweed, palmer [9]) | Plant response rating, Oat, Wild (oat, wild [12]; [23]) | Plant response rating, Oat, Wild (oat, wild [12]; [24]) | Plant response rating, Horseweed (horseweed) | Foxtail, Giant plant response rating (foxtail, giant [21]) | Plant response rating, Foxtail, Giant (foxtail, giant [21])
80: Plant response rating, Ragweed (ragweed [3]; [24]) | Plant response rating, Blackgrass (blackgrass [4]) | Plant response rating, Ragweed (ragweed [8]) | Galium plant response rating (galium) | Plant response rating, Kochia (kochia [11]; [24]) | Plant response rating, Ryegrass, Italian (ryegrass, Italian [22])
10: Plant response rating, Corn (corn [10]; [23]) | Plant response rating, Blackgrass (blackgrass [13]; [23]) | Plant response rating, Wheat (wheat [16]; [23])
70: Goosegrass plant response rating (goosegrass [6]) | Plant response rating, Oat, Wild (oat, wild [7]) | Plant response rating, Corn (corn [15]) | Kochia plant response rating (kochia [17]) | Plant response rating, Ryegrass, Italian (ryegrass, Italian [18]; [23]) | Plant response rating, Wheat (wheat [19])
30: Plant response rating, Ragweed (ragweed [3]; [23]) | Blackgrass plant response rating (blackgrass [4]) | Oat, Wild plant response rating (oat, wild [7]) | Corn plant response rating (corn [15]) | Horseweed plant response rating (horseweed)
50: Ragweed plant response rating (ragweed [8])
100: Soybean plant response rating (soybean [1]) | Plant response rating, Soybean (soybean [1]) | Plant response rating, Goosegrass (goosegrass [2]; [23]) | Plant response rating, Goosegrass (goosegrass [2]; [24]) | Plant response rating, Soybean (soybean [5]; [24]) | Plant response rating, Pigweed, Palmer (pigweed, palmer [9]) | Plant response rating, Galium (galium) | Plant response rating, Pigweed, Palmer (pigweed, palmer [14]; [23]) | Plant response rating, Pigweed, Palmer (pigweed, palmer [14]; [24]) | Plant response rating, Kochia (kochia [17]) | Plant response rating, Ryegrass, Italian (ryegrass, Italian [18]; [24]) | Plant response rating, Foxtail, Giant (foxtail, giant [20]; [23]) | Plant response rating, Foxtail, Giant (foxtail, giant [20]; [24])
40: Plant response rating, Soybean (soybean [5]; [23]) | Plant response rating, Blackgrass (blackgrass [13]; [24]) | Plant response rating, Wheat (wheat [16]; [24]) | Ryegrass, Italian plant response rating (ryegrass, Italian [22])

CCOc1ccc(-n2cnc(C(C)C)n2)cc1C(=O)N1C[C@H](C)Oc2c(Cl)cccc21 [Compound 106]
60: Blackgrass plant response rating (blackgrass [4]) | Plant response rating, Oat, Wild (oat, wild [7]) | Corn plant response rating (corn [15])
80: Plant response rating, Blackgrass (blackgrass [4]) | Plant response rating, Horseweed (horseweed) | Plant response rating, Ryegrass, Italian (ryegrass, Italian [22])
100: Soybean plant response rating (soybean [1]) | Plant response rating, Soybean (soybean [1]) | Plant response rating, Goosegrass (goosegrass [2]; [23]) | Plant response rating, Goosegrass (goosegrass [2]; [24]) | Plant response rating, Ragweed (ragweed [3]; [24]) | Plant response rating, Soybean (soybean [5]; [24]) | Plant response rating, Galium (galium) | Plant response rating, Kochia (kochia [11]; [24]) | Plant response rating, Pigweed, Palmer (pigweed, palmer [14]; [23]) | Plant response rating, Pigweed, Palmer (pigweed, palmer [14]; [24]) | Plant response rating, Ryegrass, Italian (ryegrass, Italian [18]; [24]) | Plant response rating, Foxtail, Giant (foxtail, giant [20]; [23]) | Plant response rating, Foxtail, Giant (foxtail, giant [20]; [24]) | Plant response rating, Foxtail, Giant (foxtail, giant [21])
15: Plant response rating, Rice (rice)
0: Plant response rating, Blackgrass (blackgrass [13]; [23]) | Plant response rating, Blackgrass (blackgrass [13]; [24]) | Plant response rating, Wheat (wheat [16]; [23])
55: Plant response rating, Barnyardgrass (barnyardgrass)
70: Goosegrass plant response rating (goosegrass [6]) | Plant response rating, Ragweed (ragweed [8]) | Pigweed, Palmer plant response rating (pigweed, palmer [9]) | Galium plant response rating (galium)
40: Plant response rating, Wheat (wheat [16]; [24]) | Plant response rating, Ryegrass, Italian (ryegrass, Italian [18]; [23]) | Plant response rating, Wheat (wheat [19])
20: Plant response rating, Oat, Wild (oat, wild [12]; [23]) | Wheat plant response rating (wheat [19]) | Ryegrass, Italian plant response rating (ryegrass, Italian [22])
10: Plant response rating, Corn (corn [10]; [23]) | Plant response rating, Ducksalad (ducksalad) | Horseweed plant response rating (horseweed)
30: Plant response rating, Ragweed (ragweed [3]; [23]) | Oat, Wild plant response rating (oat, wild [7])
90: Plant response rating, Goosegrass (goosegrass [6]) | Plant response rating, Pigweed, Palmer (pigweed, palmer [9]) | Plant response rating, Oat, Wild (oat, wild [12]; [24]) | Plant response rating, Sedge, Umbrella (sedge, umbrella) | Plant response rating, Corn (corn [15]) | Kochia plant response rating (kochia [17]) | Plant response rating, Kochia (kochia [17]) | Foxtail, Giant plant response rating (foxtail, giant [21])
50: Plant response rating, Soybean (soybean [5]; [23]) | Ragweed plant response rating (ragweed [8]) | Plant response rating, Corn (corn [10]; [24]) | Plant response rating, Kochia (kochia [11]; [23])
